{
  "source": "patent US6992060B2",
  "about": "“Prolonged efficacy of islet neogenesis therapy methods with a gastrin/CCK receptor ligand and an EGF receptor ligand composition in subjects with preexisting diabetes” (Waratah Pharmaceuticals, Inc., priority 2001, dated 2006)",
  "test_system": "rats",
  "assay": "Induction of diabetes by intravenous streptozotocin",
  "type": "in vivo, rat",
  "conditions": "50 mg/kg intravenous injection",
  "protocol": "Diabetes was induced by intravenous injection with 50 mg/kg streptozotocin (STZ), which reduced pancreatic insulin content by 95%. One week later, STZ diabetic rats (of weight 200–250 g) were administered either the vehicle alone as a control (labeled CON in FIG. 1), or were administered a combination of human gastrin 17 (4 μg/kg) and human TGFα (4 μg/kg) peptides (labeled GAS/TGF) by once-daily, intraperitoneal injections for 12 days. At 1, 2, 4 and 8 weeks after treatment, intraperitoneal glucose tolerance tests (IPGTT) were performed, to measure both blood glucose levels, and plasma insulin levels, in response to a challenge amount of glucose.",
  "data": [
    {"compound": "CN(N=O)C(=O)N[C@H]1C(O)O[C@H](CO)[C@@H](O)[C@@H]1O", "note": "(mixture of isomers) [streptozotocin]", "values": [
      {"measurement": "reduction of pancreatic insulin content", "result": 95, "unit": "%"}
    ]}
  ]
}
